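Values below derive from 48-hour exposures of cells grown in 96-well plates, with endpoints linearly interpolated between the two concentrations bracketing the appropriate inhibition level. At the GI50, growth is halved.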 Activity calls are given as the source filed them. No stated cut-off is given here; in the data, active = GI50 up to about 1.1 µM and inactive = higher.
Experiments:
Experiment in all cases: NCI tumour cell line growth inhibition, 48 h
MOLT-4 = system: MOLT-4
DU-145 = system: DU-145
EKVX = system: EKVX
UO-31 = system: UO-31
SK-MEL-5 = system: SK-MEL-5
TK-10 = system: TK-10
SK-MEL-2 = system: SK-MEL-2
MCF7 = system: MCF7
LOX IMVI = system: LOX IMVI
HT-29 = system: HT-29
SF-539 = system: SF-539
OVCAR-3 = system: OVCAR-3
K562 = system: K562
NCI/ADR-RES = system: NCI/ADR-RES
MDA-N = system: MDA-N
RPMI-8226 = system: RPMI-8226
NCI-H23 = system: NCI-H23
CAKI-1 = system: CAKI-1
SF-295 = system: SF-295
UACC-257 = system: UACC-257

Row | Structure (SMILES) | GI50 (MOLT-4) | GI50 (DU-145) | GI50 (EKVX) | GI50 (UO-31) | GI50 (SK-MEL-5) | GI50 (TK-10) | GI50 (SK-MEL-2) | GI50 (MCF7) | GI50 (LOX IMVI) | GI50 (HT-29) | GI50 (SF-539) | GI50 (OVCAR-3) | GI50 (K562) | GI50 (NCI/ADR-RES) | GI50 (MDA-N) | GI50 (RPMI-8226) | GI50 (NCI-H23) | GI50 (CAKI-1) | GI50 (SF-295) | GI50 (UACC-257)
1 | Cc1ccc2c(O)cc(-c3csc4ccccc34)nc2n1 | < 0.01 µM (active) | 0.0163 µM (active) | 0.0344 µM (active) | 0.0138 µM (active) | < 0.0112 µM (active) | 0.484 µM (active) | 0.0139 µM (active) | 0.0131 µM (active) | < 0.0115 µM (active) | 0.0173 µM (active) | < 0.01 µM (active) | < 0.01 µM (active) | < 0.01 µM (active) | < 0.01 µM (active) | < 0.01 µM (active) | < 0.01 µM (active) | 0.0274 µM (active) | < 0.01 µM (active) | < 0.01 µM (active) | 
2 | C/C(=N\NC(=S)N1CCC1)c1ccccn1 | 0.01 µM (active) | 0.891 µM (active) | 0.0658 µM (active) | 0.427 µM (active) | < 0.0196 µM (active) | 1.29 µM (inactive) | 1.97 µM (inactive) | 0.0015 µM (active) | < 0.0119 µM (active) | 0.01 µM (active) | 0.114 µM (active) | 0.01 µM (active) | 0.01 µM (active) | 0.00332 µM (active) | 0.0682 µM (active) | 0.01 µM (active) | 0.01 µM (active) | 0.0398 µM (active) | 0.01 µM (active) | < 0.0229 µM (active)
3 | O=C(CC(C(=O)c1cccs1)c1ccsc1)c1ccccc1 (stereo not drawn) | 36.6 µM (inactive) | > 100 µM (inactive) | > 100 µM (inactive) | 37.8 µM (inactive) | 76.9 µM (inactive) | > 100 µM (inactive) |  | 30.7 µM (inactive) | > 100 µM (inactive) | > 100 µM (inactive) | > 100 µM (inactive) | > 100 µM (inactive) |  | 25.1 µM (inactive) | 37.5 µM (inactive) | 48.8 µM (inactive) | 26.4 µM (inactive) | > 100 µM (inactive) | > 100 µM (inactive) | > 100 µM (inactive)
4 | CC1=C(C)C1[N+](=O)[O-] | > 100 µM (inactive) | > 100 µM (inactive) | > 100 µM (inactive) | > 100 µM (inactive) | > 100 µM (inactive) | > 100 µM (inactive) |  | > 100 µM (inactive) | > 100 µM (inactive) | > 100 µM (inactive) | > 100 µM (inactive) | > 100 µM (inactive) | > 100 µM (inactive) | > 100 µM (inactive) | > 100 µM (inactive) | > 100 µM (inactive) | > 100 µM (inactive) | > 100 µM (inactive) | > 100 µM (inactive) | > 100 µM (inactive)
5 | CCOC(=O)c1cn2c(ccc3sc4ccccc4c(=O)c32)n1 | > 100 µM (inactive) | > 100 µM (inactive) | > 100 µM (inactive) | > 100 µM (inactive) | > 100 µM (inactive) | > 100 µM (inactive) |  | 84.3 µM (inactive) | > 100 µM (inactive) | > 100 µM (inactive) | > 100 µM (inactive) | > 100 µM (inactive) | > 100 µM (inactive) | > 100 µM (inactive) | > 100 µM (inactive) | > 100 µM (inactive) | > 100 µM (inactive) | > 100 µM (inactive) | > 100 µM (inactive) | > 100 µM (inactive)
6 | Nc1nc2c(c(=O)[nH]1)C(c1ccccc1)CC(=O)N2 (stereo not drawn) | > 100 µM (inactive) | > 100 µM (inactive) | > 100 µM (inactive) | > 100 µM (inactive) | > 100 µM (inactive) | > 100 µM (inactive) | > 100 µM (inactive) | > 100 µM (inactive) | > 100 µM (inactive) | > 100 µM (inactive) | > 100 µM (inactive) | > 100 µM (inactive) | > 100 µM (inactive) | > 100 µM (inactive) | > 100 µM (inactive) | > 100 µM (inactive) | > 100 µM (inactive) |  | > 100 µM (inactive) | > 100 µM (inactive)
7 | COc1ccc2c(c1)CC1(O)COc3cc(OC)ccc3C1O2 (stereo not drawn) | 48.4 µM (inactive) | > 100 µM (inactive) | > 100 µM (inactive) | > 100 µM (inactive) | 38.8 µM (inactive) | > 100 µM (inactive) | > 100 µM (inactive) | > 100 µM (inactive) | > 100 µM (inactive) | > 100 µM (inactive) | > 100 µM (inactive) | > 100 µM (inactive) |  | 68.9 µM (inactive) | > 100 µM (inactive) | 59 µM (inactive) | > 100 µM (inactive) | > 100 µM (inactive) | > 100 µM (inactive) | 61.8 µM (inactive)

From ChEMBL document CHEMBL1201862, “PubChem BioAssay data set” (2004)
